{"source": "paper PMC11247503", "about": "(Journal of Medicinal Chemistry, 2024)", "key": {"circulating lymphocytes": {"test_system": "circulating lymphocytes", "assay": "Circulating lymphocyte counts in mice", "type": "in vivo, mice (C57BL/6j)", "protocol": "(§1) To determine the effect of 11iin vivo, mice were treated with 3, 10, and 30 mg/kg intraperitoneally, and the amount of circulating lymphocytes was quantified. A hallmark of Spns2 inhibition is the decrease in lymphocytes counts, which is a pharmacodynamic marker of target engagement.[54],[55] […] To determine whether blood S1P levels were affected, plasma S1P concentrations were measured via LC-MS. […] The extent by which Spns2 inhibition by knockout or a pharmacological inhibitor affects the S1P level remains unclear. A range of changes from no significant difference[30]−[32] to 45% reduction in plasma S1P levels compared to wild type littermates have been reported.[9],[24],[28],[33]\n(§2) Figure 8 Biological evaluation of 11i in five C57BL/6j strain female mice (8–10 weeks old). […] Blood was drawn 4 h postdose. (B) Plasma S1P concentrations in mice treated with 11i are shown relative to vehicle 6 h following IP administration at 3 mg/kg, 10 mg/kg, and 30 mg/kg. […] Blood was drawn 4 h postdose. (D) Plasma S1P concentrations in mice treated with 11i are shown relative to vehicle 4 h post oral administration at 10 mg/kg, 30 mg/kg, and 100 mg/kg. […]\n(§3) Compounds that performed well in the HeLa cell assay were subsequently administered to mice (C57BL/6j strain). […] Plasma S1P concentrations were determined using LC-MS/MS. […]"}, "[1]": {"assay": "Compound concentrations in plasma of mice after oral dose", "type": "in vivo, mice (C57BL/6j)", "protocol": "We next investigated the potential oral bioavailability of 11i (SLF80821178), which will be a significant advantage over SLB1122168. […] Thus, mice were administered a single 10 mg/kg oral dose of 11i, and compound levels in plasma were quantified.\nFigure 7 Compound concentrations in plasma of mice treated with 11i. Three C57BL/6j strain female mice (8–10 weeks old) were treated with a single 10 mg/kg dose of 11i administered PO. Blood samples were collected, and plasma 11i levels were quantified via LC-MS/MS.\nCompounds that performed well in the HeLa cell assay were subsequently administered to mice (C57BL/6j strain). Inhibitor (10 mg/kg) or an equivalent dose of vehicle (36.1% PEG400/9.1% ethanol/4.6% solutol/50% H2O) was administered to animals via an intraperitoneal injection or oral gavage. After 6 to 16 h, blood samples were collected. Lymphocyte counts were obtained from 20 μL of mouse blood using a Heska HT5 Element blood analyzer. Plasma S1P concentrations were determined using LC-MS/MS. All animal protocols were approved prior to experimentation by the University of Virginia School of Medicine’s Animal Care and Use Committee."}, "mouse Spns2 [2]": {"molecular_target": "T1, mouse Spns2 (Mus musculus, UniProt Q91VM4)", "T1 construct": "expressed in transfected cells; host or cells: HeLa cells (G418-resistant pools)", "T1 sequence (Q91VM4 1-549)": "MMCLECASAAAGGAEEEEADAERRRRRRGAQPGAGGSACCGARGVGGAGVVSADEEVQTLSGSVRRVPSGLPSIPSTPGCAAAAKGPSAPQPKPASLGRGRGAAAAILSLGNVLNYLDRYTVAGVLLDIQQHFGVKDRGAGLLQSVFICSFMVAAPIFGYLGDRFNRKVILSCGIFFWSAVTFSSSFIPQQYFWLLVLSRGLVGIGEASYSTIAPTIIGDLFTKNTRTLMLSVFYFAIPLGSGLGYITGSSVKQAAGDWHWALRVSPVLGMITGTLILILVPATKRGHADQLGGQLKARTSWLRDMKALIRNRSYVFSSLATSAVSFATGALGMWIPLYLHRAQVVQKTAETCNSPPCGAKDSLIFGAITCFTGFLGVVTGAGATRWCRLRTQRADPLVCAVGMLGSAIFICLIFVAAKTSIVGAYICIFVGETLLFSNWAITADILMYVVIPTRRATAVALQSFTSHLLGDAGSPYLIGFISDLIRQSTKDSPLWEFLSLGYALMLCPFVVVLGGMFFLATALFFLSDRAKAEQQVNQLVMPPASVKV", "assay": "HeLa cell S1P release assay (Spns2 inhibition)", "type": "cell-based", "conditions": "for inhibition at 1 µM: HeLa, 1 μM inhibitor, HeLa cells, S1P in media by LC-MS/MS, read-out: %Inhib. (Spns2 inhibition, percent decrease in S1P secretion relative to control)", "protocol": "With a library of analogs of SLB1122168 containing phenylurea, phenylcarbamate, and benzamide as bioisostere of the benzoxazole, we investigated their potential in inhibiting S1P transport using a HeLa cell assay.[36]−[38],[43] Briefly, in this assay, Spns2 is overexpressed whereas the S1P-degrading enzymes (lyase or phosphatases) were blocked with inhibitors.[44],[45] Inhibition of S1P transport is determined by measuring the amount of S1P in the buffer using LC-MS.\nThis assay was conducted as reported by Kharel et al.[43] Briefly, compounds were assessed in a HeLa cell assay at a 1 μM test concentration, unless noted otherwise. HeLa cells were transfected with a pcDNA3.1 plasmid encoding mouse Spns2, and pools of cells resistant to G418 were selected. S1P catabolic pathways were suppressed by the addition of 4-deoxypyridoxine (1 mM), NaF (2 mM), and Na3VO4 (0.2 mM). After growing cells to near confluence on 12-well tissue culture dishes, growth media was removed, inhibitors were introduced in release media (serum free medium containing 0.2% fatty acid free BSA), and the cells were incubated for 16–18 h at 37 °C. The BSA with bound S1P was concentrated from the release media by TFA-driven precipitation after addition of the d7-S1P internal standard, the S1P extracted from the protein pellet, and quantified by LC-MS/MS. Lower levels of S1P release into the media indicated greater degrees of Spns2 inhibition. Inhibition is reported as the percent decrease in S1P release relative to the control where no inhibitor was introduced."}, "plasma S1P": {"test_system": "plasma S1P", "assay": "Plasma S1P concentrations in mice", "type": "in vivo, mice (C57BL/6j)", "protocol": "as §1, §2, §3"}, "[3]": {"design": "method as in PMID 37010497", "conditions": "cited from earlier work"}, "mice": {"test_system": "mice", "design": "method as in PMID 35609189", "conditions": "dose 30 mg/kg; cited from earlier work"}, "kidney fibrosis": {"test_system": "kidney fibrosis", "design": "method as in PMID 35976996", "conditions": "unilateral ischemia-reperfusion injury; cited from earlier work"}, "mouse Spns2 [4]": {"molecular_target": "T1, mouse Spns2", "conditions": "read-out: IC50 (Spns2 inhibition); cited from earlier work"}}, "note": "“Also recorded” adds a separate entry of the source. Read-outs that look alike come from different tables or passages of the source.", "data": [{"smiles": "CCCCCCCCCCc1ccc(NC(=O)N2CCNCC2)cc1.Cl", "note": "[11i, N-(4-Decylphenyl)piperazine-1-carboxamide Hydrochloride]", "values": [{"measurement": "decrease in lymphocyte count, maximum level", "setting": "circulating lymphocytes; IP 3, 10 and 30 mg/kg, blood 4 h postdose", "value": 50, "unit": "%"}, {"measurement": "reduction in circulating lymphocyte counts", "setting": "circulating lymphocytes; route not stated at this place (abstract)", "value": "~50", "unit": "%"}, {"measurement": "oral bioavailability", "setting": "[1]; 10 mg/kg PO", "value": "orally bioavailable"}, {"measurement": "Tmax", "setting": "[1]; female, C57BL/6j, mouse, single 10 mg/kg PO, plasma, read-out: tmax (time of maximum circulating level)", "value": 4, "unit": "h"}, {"measurement": "compound exposure at tmax (maximum plasma concentration)", "setting": "[1]; single 10 mg/kg PO, plasma", "value": 1.2, "unit": "µM"}, {"measurement": "time circulating levels remained elevated above 0.5 μM", "setting": "[1]; single 10 mg/kg PO, plasma", "value": "more than 8 h"}, {"measurement": "inhibition at 1 µM", "setting": "mouse Spns2 [2]", "value": "≥ 80", "unit": "%"}, {"measurement": "IC50", "setting": "mouse Spns2 [2]; dose-response 1 nM to 10 μM, HeLa cells transfected with Spns2, read-out: IC50, inhibition of S1P release from HeLa cells", "value": "51 ± 3", "unit": "nM"}, {"measurement": "change in plasma S1P levels", "setting": "plasma S1P; IP 3, 10 and 30 mg/kg, 6 h", "value": "no change"}, {"measurement": "change in plasma S1P levels", "setting": "plasma S1P; PO 10, 30 and 100 mg/kg, 4 h", "value": "no change"}]}, {"smiles": "CCCCCCCCCCc1ccc2nc(NC[C@H]3CCNC3)oc2c1.Cl", "note": "[SLB1122168]", "values": [{"measurement": "oral bioavailability", "setting": "[3]", "value": "not orally bioavailable; also recorded: poor oral bioavailability"}, {"measurement": "inhibition at 1 µM", "setting": "mouse Spns2 [2]", "value": "85 ± 2", "unit": "%"}]}, {"smiles": "CCCCCCCCCCc1ccc(-c2noc(CCCN)n2)cc1.Cl", "note": "[SLF1081851]", "values": [{"measurement": "inhibition at 1 µM", "setting": "mouse Spns2 [2]", "value": "44 ± 5", "unit": "%"}, {"measurement": "toxicity to mice", "setting": "mice", "value": "toxic"}, {"measurement": "effect on kidney fibrosis", "setting": "kidney fibrosis", "value": "ameliorated kidney fibrosis"}]}, {"smiles": "CCCCCCCCCCc1ccc(-c2cn(CC)c(CCCN)n2)cc1", "note": "[SLF80721166]", "values": [{"measurement": "IC50", "setting": "mouse Spns2 [4]", "value": "1400 ± 300", "unit": "nM"}]}]}
